Earlier results as cited in patent EP4454482A1, “PREPARATIONS COMPRISING OLEANOL GLYCOSIDES” (Analyticon Discovery GmbH, priority 2023, dated 2024).

Conditions: water (20° dH) at 20 °C; solid active agent

solubility in water: less than 5 g/L
Structure (SMILES): Nc1nc2c(ncn2COCCO)c(=O)[nH]1 [Acyclovir, 2-Amino-1,9-dihydro-9-((2-hydroxyethoxy)methyl)-6H-Purin-6-one]
